# From US10759787B2, “Benzofuran derivative, preparation method thereof and use thereof in medicine” (Jiangsu Hengrui Medicine Co., Ltd., priority 2015, dated 2020)
# Experiments:
# [1] = test system: Pfeiffer cells; assay: In vitro anti-tumor cell growth assay (CellTiter-Glo), Pfeiffer; assay type: cell-based; details: Homo sapiens, 120 h; Pfeiffer cells (A677G mutant), 5 days; read-out: IC50 for inhibiting the growth activity of tumor cells (Pfeiffer) in vitro
# Procedure: (§1) Test Example 2. Assay for Determining In Vitro Anti-Tumor Cell Growth Activity of the Example Compounds of the Present Invention
# (§2) This method was used to determinate the inhibitory effect of the compounds of the present invention on the growth activity of tumor cells (Pfeiffer or WSU-DLCL2) in vitro. Pfeiffer cells carry A677G mutant, and WSU-DLCL2 cells carry Y641F mutant.
# (§3) The lymphoma suspension cell line (Pfeiffer or WSU-DLCL2) was cultured in a RPMI-1640 medium containing 10% inactivated Fetal Bovine Serum, 100 U/mL penicillin, and 100 μg/mL streptomycin, and incubated in an incubator with 5% carbon dioxide at 37° C. under a saturated humidity condition, and passaged every 3-4 days.
# (§4) A cell sudpension was prepared with a fresh cell medium, added to a 96-well cell culture plate at 8000 cells/well (Pfeiffer) or 2000 cells/well (WSU-DLCL2), and incubated in 5% carbon dioxide at 37° C. incubator overnight. On the day of the experiment, the EZH2 test compounds (final concentration: 20000, 2000, 200, 20, 2, 0.2 nM) were added into the experimental wells for 3 parallel wells per group. A control well with the medium alone but without cells was set up to obtain the background luminescent value. The cell culture plate was incubated in an incubator with 5% carbon dioxide at 37° C. for 5 days.
# (§5) After the compounds were applied to the cells for 5 days, the cell culture plate was placed at room temperature for 30 minutes, then a CellTiter-Glo reagent equal to the volume of cell culture medium was added to each well. The contents were mixed on a shaker for 10 minutes, and the […] signal values were recorded. The cell growth inhibition rate was calculated, and the formula was: cell growth inhibiton rate=[(negative control control−experimental group)/(negative control group−background luminescent value)]×100%. The IC50 values (half inhibition rate IC50, i.e., a drug concentration that is required for 50% cell growth inhibition rate) were calculated by software from the cell growth inhibiton rate and the corresponding concentration.
# [2] = biological target: EZH2-A677G (Homo sapiens (Human), UniProt Q15910, A677G); assay: EZH2-A677G mutant enzyme activity assay (HTRF); assay type: biochemical; details: read-out: IC50 for inhibiting the activity of enzyme EZH2-A677G
# Procedure: (§6) Histone H3 biotin labeling and S-adenosyl methionine were respectively diluted to 50 nM and 50 μM with a kinase buffer, then added to a 384-well plate at 4 μl/well. The test compound was diluted with a kinase buffer (it was diluted from the highest concentration 30 μM in 10 fold concentration gradient to 7 concentration points), then added to the 384-well microtiter plate at 4 μl/well. The plate was incubated at room temperature for 2 hours. Histone H3K27 Me3 monoclonal antibody and Streptavidin-XL665 were diluted to 30 nM and 500 nM by HTRF detection buffer, then added to the 384-well microplate at 10 µl/well and incubated for 1 hour. A well without an EZH2 enzyme and a compound was used as a negative control, and a well with an EZH2 enzyme but without a compound was used as a positive control. […] The compound logarithm concentration vs the inhibition percentage relative to the positive control well was plotted using GraphPad Prism, then the IC50 values were calculated.
# [3] = Pharmacokinetics assay in SD rats after intragastrical administration; assay type: in vivo; details: both sexes, Sprague-Dawley, rat, plasma, po, 5 mg/kg; for Vd/F: read-out: Apparent Distribution Volume Vz/F; for AUC: read-out: Area Under Curve AUC; for CL/F: read-out: Clearance CL/F; for half-life: read-out: Half-Life t1/2 (converted); for MRT: read-out: Mean Residence Time MRT; for Cmax: read-out: Plasma Conc. Cmax
# Procedure: Test Example 3. Pharmacokinetics Assay of the Compounds of Examples 1, 2, 3 and 9 of the Present Invention
# SD rats were used as test animals. The drug concentration in plasma at different time points was determined by LC/MS/MS after intragastrical administration of the compounds of Examples 1, 2, 3 and 9 to the rats. The pharmacokinetic behavior of the compounds of the present invention was studied and evaluated in rats.
# 16 healthy adult Sprague-Dawley (SD) rats, half male and half female, were purchased from SINO-BRITSH SIPPR/BK LAB. ANIMAL LTD., CO, with Certificate No.: SCXK (Shanghai) 2008-0016.
# The appropriate amount of each compound was weighed, and added with 0.5% CMC-Na (containing 1% Tween 80) to prepare a 1.0 mg/mL suspension by grinding.
# After an overnight fast, 16 SD rats were divided into 4 groups equally, half male and half female, and administered intragastrically the test compounds at an administration volume of 5 mL/kg.
# Blood (0.2 mL) was taken from the orbital sinus before administration and at 0.5, 1.0, 2.0, 4.0, 6.0, 8.0, 11.0, and 24.0 hours after administration. The samples were stored in heparinized tubes, and centrifuged for 10 minutes at 3,500 rpm to separate the blood plasma. The plasma samples were stored at −20° C.
# The plasma concentration of the test compounds in rat plasma after intragastric administration was determined by LC-MS/MS.
# Pharmacokinetic parameters of the compounds of Examples 1, 2, 3 and 9 of the present invention are shown below: […]
# [4] = test system: WSU-DLCL2 cells; assay: In vitro anti-tumor cell growth assay (CellTiter-Glo), WSU-DLCL2; assay type: cell-based; details: Homo sapiens, WSUDLCL2, 120 h; WSU-DLCL2 cells (Y641F mutant), 5 days; read-out: IC50 for inhibiting the growth activity of tumor cells (WSU-DLCL2) in vitro
# Procedure: as §1, §2, §3, §4, §5
# [5] = biological target: EZH2-Y641F (Homo sapiens (Human), UniProt Q15910, Y641F); assay: EZH2-Y641F mutant enzyme activity assay (HTRF); assay type: biochemical; details: read-out: IC50 for inhibiting the activity of enzyme EZH2-Y641F
# Procedure: as §6
# Chain of EZH2-Y641F (Q15910 whole entry Y641F): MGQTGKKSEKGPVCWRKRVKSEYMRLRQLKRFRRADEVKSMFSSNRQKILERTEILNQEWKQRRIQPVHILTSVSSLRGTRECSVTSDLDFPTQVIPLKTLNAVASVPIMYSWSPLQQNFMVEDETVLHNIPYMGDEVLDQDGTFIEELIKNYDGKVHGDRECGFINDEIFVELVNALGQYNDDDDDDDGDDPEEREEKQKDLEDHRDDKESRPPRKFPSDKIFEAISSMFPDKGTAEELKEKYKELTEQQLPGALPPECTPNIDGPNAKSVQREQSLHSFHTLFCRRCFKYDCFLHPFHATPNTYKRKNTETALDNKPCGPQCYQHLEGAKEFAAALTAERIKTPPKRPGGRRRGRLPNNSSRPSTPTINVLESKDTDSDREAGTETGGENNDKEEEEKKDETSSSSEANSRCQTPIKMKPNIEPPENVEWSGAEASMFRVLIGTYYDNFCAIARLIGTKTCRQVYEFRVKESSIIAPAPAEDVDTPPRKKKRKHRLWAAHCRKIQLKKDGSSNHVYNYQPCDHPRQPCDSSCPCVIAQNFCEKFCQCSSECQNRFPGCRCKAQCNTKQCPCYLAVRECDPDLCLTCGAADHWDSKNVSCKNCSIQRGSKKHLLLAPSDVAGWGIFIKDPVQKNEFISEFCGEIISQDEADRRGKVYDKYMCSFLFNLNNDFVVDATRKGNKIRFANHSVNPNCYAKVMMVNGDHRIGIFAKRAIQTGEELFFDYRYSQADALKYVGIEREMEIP
# Chain of EZH2-Y641F (O75530 whole entry partner): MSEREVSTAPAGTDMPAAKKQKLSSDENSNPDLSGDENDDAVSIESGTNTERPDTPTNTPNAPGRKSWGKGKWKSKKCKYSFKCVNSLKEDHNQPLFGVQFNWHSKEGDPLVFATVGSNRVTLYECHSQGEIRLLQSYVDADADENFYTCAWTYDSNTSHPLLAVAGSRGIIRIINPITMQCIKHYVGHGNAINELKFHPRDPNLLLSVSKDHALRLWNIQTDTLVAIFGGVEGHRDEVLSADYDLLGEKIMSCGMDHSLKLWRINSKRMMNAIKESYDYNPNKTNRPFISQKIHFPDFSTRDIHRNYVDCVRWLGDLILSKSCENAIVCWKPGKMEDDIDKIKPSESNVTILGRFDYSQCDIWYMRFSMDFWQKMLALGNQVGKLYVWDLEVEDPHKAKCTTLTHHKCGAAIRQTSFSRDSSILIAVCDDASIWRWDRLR
# Chain of EZH2-Y641F (Q15022 whole entry partner): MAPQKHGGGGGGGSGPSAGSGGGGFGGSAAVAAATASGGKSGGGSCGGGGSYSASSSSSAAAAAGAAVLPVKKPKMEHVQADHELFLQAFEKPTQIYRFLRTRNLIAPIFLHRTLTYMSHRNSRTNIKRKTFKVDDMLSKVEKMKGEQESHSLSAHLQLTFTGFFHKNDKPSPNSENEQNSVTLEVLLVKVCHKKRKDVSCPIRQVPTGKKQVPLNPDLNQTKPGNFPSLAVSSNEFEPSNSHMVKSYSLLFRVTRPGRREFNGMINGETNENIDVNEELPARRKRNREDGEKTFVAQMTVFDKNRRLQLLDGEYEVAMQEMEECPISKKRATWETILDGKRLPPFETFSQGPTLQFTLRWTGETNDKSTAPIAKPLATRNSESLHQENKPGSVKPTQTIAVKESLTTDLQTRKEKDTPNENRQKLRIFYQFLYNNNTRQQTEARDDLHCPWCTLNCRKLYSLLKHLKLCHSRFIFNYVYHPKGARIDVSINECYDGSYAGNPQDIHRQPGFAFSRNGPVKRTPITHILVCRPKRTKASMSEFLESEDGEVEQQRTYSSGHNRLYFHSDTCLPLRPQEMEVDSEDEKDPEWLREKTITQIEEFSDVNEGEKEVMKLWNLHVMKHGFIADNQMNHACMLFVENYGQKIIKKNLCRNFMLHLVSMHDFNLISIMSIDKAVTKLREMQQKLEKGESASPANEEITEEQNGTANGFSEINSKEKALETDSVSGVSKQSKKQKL
# Chain of EZH2-Y641F (Q09028 whole entry partner): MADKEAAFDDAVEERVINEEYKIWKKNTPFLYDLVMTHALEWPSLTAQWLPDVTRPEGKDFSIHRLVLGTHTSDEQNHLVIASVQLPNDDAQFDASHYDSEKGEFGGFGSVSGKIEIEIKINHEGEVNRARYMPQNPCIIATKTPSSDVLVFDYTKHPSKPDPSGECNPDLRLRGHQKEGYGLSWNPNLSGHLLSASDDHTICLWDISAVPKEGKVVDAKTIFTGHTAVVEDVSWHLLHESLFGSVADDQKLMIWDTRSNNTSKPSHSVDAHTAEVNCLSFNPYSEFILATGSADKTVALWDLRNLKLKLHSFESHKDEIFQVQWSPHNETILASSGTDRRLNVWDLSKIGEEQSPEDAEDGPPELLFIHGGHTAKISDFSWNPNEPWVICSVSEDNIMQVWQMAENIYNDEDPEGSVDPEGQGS
# Chain of EZH2-Y641F (Q6ZN18 whole entry partner): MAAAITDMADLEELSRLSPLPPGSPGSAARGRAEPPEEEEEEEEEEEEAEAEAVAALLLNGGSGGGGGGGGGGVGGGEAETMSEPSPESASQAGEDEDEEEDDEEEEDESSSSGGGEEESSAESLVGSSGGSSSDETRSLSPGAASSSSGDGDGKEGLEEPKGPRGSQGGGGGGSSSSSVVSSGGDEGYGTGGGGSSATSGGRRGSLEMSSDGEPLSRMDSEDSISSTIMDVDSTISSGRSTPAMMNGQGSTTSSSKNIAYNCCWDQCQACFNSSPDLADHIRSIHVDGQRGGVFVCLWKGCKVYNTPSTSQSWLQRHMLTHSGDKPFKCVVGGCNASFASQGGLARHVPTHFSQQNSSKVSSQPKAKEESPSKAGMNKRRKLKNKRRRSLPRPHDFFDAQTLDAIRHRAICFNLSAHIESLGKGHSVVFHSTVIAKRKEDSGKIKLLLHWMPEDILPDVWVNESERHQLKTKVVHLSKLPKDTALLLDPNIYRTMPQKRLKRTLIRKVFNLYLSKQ
# Chain of EZH2-A677G (Q15910 whole entry A677G): as the sequence (Q15910 whole entry Y641F) above, with F641Y, A677G counted along it
# Chain of EZH2-A677G (O75530 whole entry partner): as the sequence (O75530 whole entry partner) above
# Chain of EZH2-A677G (Q15022 whole entry partner): as the sequence (Q15022 whole entry partner) above
# Chain of EZH2-A677G (Q09028 whole entry partner): as the sequence (Q09028 whole entry partner) above
# Chain of EZH2-A677G (Q6ZN18 whole entry partner): as the sequence (Q6ZN18 whole entry partner) above
SMILES,IC50 [1] [nM],IC50 [2] [nM],Vd/F [3] [L/kg],AUC [3] [ng·h/mL],CL/F [3] [mL/min/kg],half-life [3] [h],MRT [3] [h],Cmax [3] [ng/mL],IC50 [4] [nM],IC50 [5] [nM]
"CCc1c(N(CC)C2CCOCC2)cc2oc(CN3CCCCC3)cc2c1C(=O)NCc1c(OC)cc(C)[nH]c1=O [Example 1, 5-Ethyl-6-(ethyl(tetrahydro-2H-pyran-4-yl)amino)-N-((4-methoxy-6-methyl-2-oxo-1,2-dihydropyridin-3-yl)methyl)-2-(piperidin-1-ylmethyl)benzofuran-4-carboxamide]",2,6.4,28.1 ± 18.4,246 ± 127,390 ± 201,0.8 ± 0.13,2.37 ± 0.18,88.9 ± 77.1,–,–
"CCc1c(N(CC)C2CCOCC2)cc2oc(CN3CCCCC3)cc2c1C(=O)NCc1c(C)cc(C)[nH]c1=O [Example 2, N-((4,6-Dimethyl-2-oxo-1,2-dihydropyridin-3-yl)methyl)-5-ethyl-6-(ethyl(tetrahydro-2H-pyran-4-yl)amino)-2-(piperidin-1-ylmethyl)benzofuran-4-carboxamide]",13,–,41.4 ± 7.91,378,222 ± 23,2.2 ± 0.68,3.18 ± 0.3,105 ± 44.5,39,–
"CCc1c(N(CC)C2CCOCC2)cc2oc(C3CCN(C(C)C)CC3)cc2c1C(=O)NCc1c(C)cc(C)[nH]c1=O [Example 9, N-((4,6-Dimethyl-2-oxo-1,2-dihydropyridin-3-yl)methyl)-5-ethyl-6-(ethyl(tetrahydro-2H-pyran-4-yl)amino)-2-(1-isopropylpiperidin-4-yl)benzofuran-4-carboxamide]",7,5.7,35.1 ± 37.1,274 ± 180,562 ± 592,0.719 ± 0.15,3.48 ± 0.107,79.1 ± 50.7,55,4
"CCN(c1cc2occc2c(C(=O)NCc2c(OC)cc(C)[nH]c2=O)c1C)C1CCOCC1 [Example 18, 6-(Ethyl(tetrahydro-2H-pyran-4-yl)amino)-N-((4-methoxy-6-methyl-2-oxo-1,2-dihydropyridin-3-yl)methyl)-5-methylbenzofuran-4-carboxamide]",20,4,–,–,–,–,–,–,113,2.3
"CCN(c1cc2oc(C)cc2c(C(=O)NCc2c(OC)cc(C)[nH]c2=O)c1C)C1CCOCC1 [Example 19, 6-(Ethyl(tetrahydro-2H-pyran-4-yl)amino)-N-((4-methoxy-6-methyl-2-oxo-1,2-dihydropyridin-3-yl)methyl)-2,5-dimethylbenzofuran-4-carboxamide]",14,2.9,–,–,–,–,–,–,232,2.8
"CCN(c1cc2occ(C)c2c(C(=O)NCc2c(OC)cc(C)[nH]c2=O)c1C)C1CCOCC1 [Example 20, 6-(Ethyl(tetrahydro-2H-pyran-4-yl)amino)-N-((4-methoxy-6-methyl-2-oxo-1,2-dihydropyridin-3-yl)methyl)-3,5-dimethylbenzofuran-4-carboxamide]",–,5.9,–,–,–,–,–,–,–,5.6
"COc1cc(C)[nH]c(=O)c1CNC(=O)c1c(C)c(N(C)C2CCOCC2)cc2occc12 [Example 23, N-((4-Methoxy-6-methyl-2-oxo-1,2-dihydropyridin-3-yl)methyl)-5-methyl-6-(methyl(tetrahydro-2H-pyran-4-yl)amino)benzofuran-4-carboxamide]",68,4.8,–,–,–,–,–,–,–,0.3
"CCN(c1cc2occc2c(C(=O)NCc2c(OC)cc(C)[nH]c2=O)c1C)[C@H]1CC[C@H](N(C)C)CC1 [Example 24, 6-(((1r,4r)-4-(Dimethylamino)cyclohexyl)(ethyl)amino)-N-((4-methoxy-6-methyl-2-oxo-1,2-dihydropyridin-3-yl)methyl)-5-methylbenzofuran-4-carboxamide]",19,–,–,–,–,–,–,–,45,3.4
"CCN(c1cc2occc2c(C(=O)NCc2c(OC)cc(C)[nH]c2=O)c1C)C1CCN(C(C)=O)CC1 [Example 26, 6-((1-Acetylpiperidin-4-yl)(ethyl)amino)-N-((4-methoxy-6-methyl-2-oxo-1,2-dihydropyridin-3-yl)methyl)-5-methylbenzofuran-4-carboxamide]",–,2.9,–,–,–,–,–,–,–,2.8
"CCc1c(N(CC)C2CC(F)(F)C2)cc2occc2c1C(=O)NCc1c(OC)cc(C)[nH]c1=O [Example 32, 6-((3,3-Difluorocyclobutyl)(ethyl)amino)-5-ethyl-N-((4-methoxy-6-methyl-2-oxo-1,2-di hydropyridin-3-yl)methyl)benzofuran-4-carboxamide]",18,4,–,–,–,–,–,–,190,–

# Second part, the molecule after the results:
IC50 [1] [nM],IC50 [2] [nM],Vd/F [3] [L/kg],AUC [3] [ng·h/mL],CL/F [3] [mL/min/kg],half-life [3] [h],MRT [3] [h],Cmax [3] [ng/mL],IC50 [4] [nM],IC50 [5] [nM],SMILES
4,38,40.5 ± 7.97,487 ± 12,171 ± 4.4,2.73 ± 0.53,4.65 ± 0.184,91.5 ± 5.6,–,–,"CCc1cc(C)[nH]c(=O)c1CNC(=O)c1c(CC)c(N(CC)C2CCOCC2)cc2oc(CN3CCCCC3)cc12 [Example 3, 5-Ethyl-6-(ethyl(tetrahydro-2H-pyran-4-yl)amino)-N-((4-ethyl-6-methyl-2-oxo-1,2-dihydropyridin-3-yl)methyl)-2-(piperidin-1-ylmethyl)benzofuran-4-carboxamide]"
15,0.9,–,–,–,–,–,–,160,3.2,"CCN(c1cc2occc2c(C(=O)NCc2c(OC)cc(C)[nH]c2=O)c1C)C1CCN(S(C)(=O)=O)CC1 [Example 25, 6-(Ethyl(1-(methylsulfonyl)piperidin-4-yl)amino)-N-((4-methoxy-6-methyl-2-oxo-1,2-dihydropyridin-3-yl)methyl)-5-methylbenzofuran-4-carboxamide]"
69,2.7,–,–,–,–,–,–,–,4.5,"CCc1c(N(CC)C2CCC(F)(F)CC2)cc2occc2c1C(=O)NCc1c(OC)cc(C)[nH]c1=O [Example 31, 6-((4,4-Difluorocyclohexyl)(ethyl)amino)-5-ethyl-N-((4-methoxy-6-methyl-2-oxo-1,2-dihydropyridin-3-yl)methyl)benzofuran-4-carboxamide]"
22,2.7,–,–,–,–,–,–,–,0.8,"CCc1c(N(CC)C2CCS(=O)(=O)CC2)cc2occc2c1C(=O)NCc1c(OC)cc(C)[nH]c1=O [Example 33, 6-((1,1-Dioxidotetrahydro-2H-thiopyran-4-yl)(ethyl)amino)-5-ethyl-N-((4-methoxy-6-methyl-2-oxo-1,2-dihydropyridin-3-yl)methyl)benzofuran-4-carboxamide]"
